Earlier results on one molecule are cited in patent US20250288631A1, “PHYTOTHERAPY FORMULATION FOR SEXUAL DYSFUNCTIONS” (priority 2022, published 2025).

For this data set the following is noted: EFSA (2015).

Consider `C/C=C/C=C\CC/C=C/C(=O)NCC(C)C` [spilanthol], for which the EFSA classification result was “class III”. Also, the Exposure limit (class III, 60 kg person) is 90 µg/person/day.
